Values joined by “and” are separate entries in the source; they are usually repeats but may differ in a detail not shown here. Identical values can stand only once. ± gives the expanded uncertainty stated by the source.
Assays:
[1] = Liquid; for vapor or sublimation pressure: Closed cell (Static) method; for mass density: 101.33 kPa, Vibrating tube method
[2] = refractive index (Na D-line) (dimensionless); conditions: 293.15 K; 101.33 kPa; Liquid; Standard Abbe refractometry

Structure (SMILES) | vapor or sublimation pressure ([1]; 298.18 K) | vapor or sublimation pressure ([1]; 298.19 K) | vapor or sublimation pressure ([1]; 303.16 K) | vapor or sublimation pressure ([1]; 303.18 K) | vapor or sublimation pressure ([1]; 308.15 K) | refractive index [2] | vapor or sublimation pressure ([1]; 293.18 K) | vapor or sublimation pressure ([1]; 303.17 K) | mass density ([1]; 313.15 K) | vapor or sublimation pressure ([1]; 313.16 K) | other results
C1CCCCC1 [cyclohexane] | 13.4 ± 0.3 kPa | 13.1 ± 0.3 kPa | 16.4 ± 0.3 kPa | 16.4 ± 0.3 kPa | 20.3 ± 0.3 kPa | 1.426 ± 0.001 |  |  |  |  | vapor or sublimation pressure ([1]; 293.17 K): 10.4 ± 0.3 kPa; vapor or sublimation pressure ([1]; 293.21 K): 10.6 ± 0.3 kPa; mass density ([1]; 308.15 K): 765 ± 1 kg/m3; vapor or sublimation pressure ([1]; 313.17 K): 24.9 ± 0.3 kPa
C=CCCCC [hex-1-ene] | 24.8 ± 0.3 kPa |  | 30.5 ± 0.3 kPa |  |  | 1.388 ± 0.001 | 19.9 ± 0.3 kPa and 20 ± 0.3 kPa | 30.6 ± 0.3 kPa | 655 ± 1 kg/m3 | 45.1 ± 0.3 kPa | vapor or sublimation pressure ([1]; 308.16 K): 37.2 ± 0.3 kPa; vapor or sublimation pressure ([1]; 313.15 K): 45.1 ± 0.3 kPa
CCCCC [pentane] | 68.5 ± 0.4 kPa | 68.5 ± 0.4 kPa |  | 82.2 ± 0.4 kPa |  | 1.358 ± 0.001 | 56.6 ± 0.4 kPa | 82.2 ± 0.4 kPa |  |  | vapor or sublimation pressure ([1]; 288.18 K): 46.5 ± 0.3 kPa; mass density ([1]; 293.15 K): 626 ± 1 kg/m3; vapor or sublimation pressure ([1]; 293.2 K): 56.6 ± 0.4 kPa; vapor or sublimation pressure ([1]; 308.17 K): 97.9 ± 0.4 kPa
CC(C)O [propan-2-ol] |  |  | 7.9 ± 0.3 kPa |  | 10.5 ± 0.3 kPa | 1.377 ± 0.001 | 4.2 ± 0.3 kPa |  | 768 ± 1 kg/m3 | 14 ± 0.3 kPa | vapor or sublimation pressure ([1]; 293.16 K): 4.2 ± 0.3 kPa; vapor or sublimation pressure ([1]; 298.17 K): 5.8 ± 0.3 kPa; vapor or sublimation pressure ([1]; 303.15 K): 7.8 ± 0.3 kPa; vapor or sublimation pressure ([1]; 313.14 K): 13.9 ± 0.3 kPa

From the NIST ThermoML archive (doi:10.1021/acs.jced.8b00765)
